The record followed here is patent US6512000B1, “Aminocarbonyl-substituted benzimidazoles having tryptase-inhibitory activity” (Boehringer Ingelheim Pharma KG, priority 1999, dated 2003).

One data set deals with T1, rh beta tryptase (Homo sapiens, UniProt P20231).
T1 construct: purchased Promega
Put plainly: Tryptase inhibition test (cleavage of N-p-tosyl-Gly-Pro-Lys-para-nitroaniline, p-nitroaniline measured at 405 nm). It counts as biochemical. The settings on record: pH 7.4, 37° C.; for inhibition at 10 µM / % Inhibition (10 μM): inhibition of rh beta tryptase at 10 μM test substance, substrate N-p-tosyl-Gly-Pro-Lys-para-nitroaniline 0.6 mM, 5 minutes; for pIC50: concentration at which 50% of the tryptase enzyme activity is inhibited, substrate 0.6 mM. An outline of the steps:
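Recombinant human beta tryptase (0.91 U/ml) in 100 mM Tris HCl pH 7.4 with 5 mM calcium and 100 mg/ml heparin; compounds pre-incubated 5 min, then 0.6 mM tosyl-Gly-Pro-Lys-pNA added, 5 min at 37 °C. p-Nitroaniline read at 405 nm; % inhibition at 10 μM, IC50 determined when inhibition exceeded 70%.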

pIC50: −log10 of the molar value. Structures can show the parent of a compound that is named as a salt.

T1 sequence (P20231 31-275): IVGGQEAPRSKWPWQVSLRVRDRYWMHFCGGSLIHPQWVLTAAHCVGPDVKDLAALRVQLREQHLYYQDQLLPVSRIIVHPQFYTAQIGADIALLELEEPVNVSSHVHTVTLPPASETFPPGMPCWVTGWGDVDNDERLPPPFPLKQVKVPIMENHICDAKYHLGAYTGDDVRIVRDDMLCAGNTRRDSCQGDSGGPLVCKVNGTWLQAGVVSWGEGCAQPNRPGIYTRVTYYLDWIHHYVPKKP

Compound `CC(C)CN(CCC(=N)N)C(=O)c1ccc2c(c1)nc(CCc1ccc(C(=N)N)cc1)n2C` (as salt: hydrochloride) [Example 11, 2-[2-(4-Amidinophenyl)-ethyl]-1-methyl-benzimidazol-5-yl-carboxylic Acid-N-(2-amidinoethyl)-N-iso-butyl-amide-dihydrochloride] displayed a melting point of 204 to 210 °C. The same measure, in the same setting: the same measure for `CN(Cc1cccnc1)C(=O)c1ccc2c(c1)nc(CCc1ccc(C(=N)N)cc1)n2C` (as salt: hydrochloride) [Example 1, 2-[2-(4-Amidinophenyl)ethyl]-1-methyl-benzimidazol-5-yl-carboxylic Acid-N-(pyridin-3-yl-methyl)-N-methyl-amide-hydrochloride]: greater than 220 °C; for `CN(C(=O)c1ccc2c(c1)nc(CCc1ccc(C(=N)N)cc1)n2C)c1cccnc1` (as salt: hydrochloride) [Example 18, 2-[2-(4-Amidinophenyl)-ethyl]-1-methyl-benzimidazol-5-yl-carboxylic Acid-N-methyl-N-(3-pyridyl)-amide-hydrochloride]: greater than 220 °C. In the case of `Cn1c(CCc2ccc(C(=N)N)cc2)nc2cc(C(=O)N(CCC(=N)N)Cc3cnc4ccccc4c3)ccc21` (as salt: hydrochloride) [Example 8, 2-[2-(4-Amidinophenyl)-ethyl]-1-methyl-benzimidazol-5-yl-carboxylic Acid-N-(2-amidinoethyl)-N-(quinolin-3-yl-methyl)-amide-dihydrochloride], the melting point is greater than 220 °C. `Cn1c(CCc2ccc(C(=N)N)cc2)nc2cc(C(=O)N(CCC(=N)N)C3CCCCCCC3)ccc21` (as salt: hydrochloride) [Example 25, 2-[2-(4-Amidinophenyl)-ethyl]-1-methyl-benzimidazol-5-yl-carboxylic Acid-N-(2-amidinoethyl)-N-cyclooctyl-amide-dihydrochloride]: the melting point is 200 to 210 °C. Consider `CC(C)N(CCC(=N)N)C(=O)c1ccc2c(c1)nc(CCc1ccc(C(=N)N)cc1)n2C` (as salt: hydrochloride) [Example 27, 2-[2-(4-Amidinophenyl)-ethyl]-1-methyl-benzimidazol-5-yl-carboxylic Acid-N-(2-amidinoethyl)-N-iso-propyl-amide-dihydrochloride], for which the melting point was in the range of 195 to 200 °C. On to `COC(=O)c1ccc(CN(Cc2ccc(CN)cc2)C(=O)c2ccc3c(c2)nc(CCc2ccc(C(=N)N)cc2)n3CCc2ccccc2)cc1` [Example 443, 2-[2-(4-amidinophenyl)ethyl]-1-(2-phenylethyl)-benzimidazol-5-yl-carboxylic acid-N-[4-(amino-methyl)-benzyl]-N-[4-(methoxycarbonyl)-benzyl]-amide], for which the inhibition at 10 µM against rh beta tryptase stood at 52%.

As to `Cn1c(CCc2ccc(C(=N)N)cc2)nc2cc(C(=O)N(CCC(=N)N)Cc3ccccc3)ccc21` [Example 9, 2-[2-(4-Amidinophenyl)-ethyl]-1-methyl-benzimidazol-5-yl-carboxylic Acid-N-(2-amidinoethyl)-N-benzyl-amide-dihydrochloride], the pIC50 on rh beta tryptase was 6.85.

`N=C(N)c1ccc(CCc2nc3cc(C(=O)N(Cc4ccc(CN)cc4)Cc4ccc5ccccc5c4)ccc3n2CCCNC(=O)Cc2ccccc2)cc1` [Example 232, 2-[2-(4-amidinophenyl)ethyl]-1-[3-(benzylcarbonylamino)-propyl]-benzimidazol-5-yl-carboxylic acid-N-[4-(amino-methyl)-benzyl]-N-(2-naphthylmethyl)-amide] came in with an inhibition at 10 µM against rh beta tryptase of 58%. Compound `CCCCN(CCN)C(=O)c1ccc2c(c1)nc(CCc1ccc(C(=N)N)cc1)n2CC1CCCO1` (stereo not drawn) [Example 290, 2-[2-(4-amidinophenyl)ethyl]-1-(tetrahydrofuran-2-yl-methyl)-benzimidazol-5-yl-carboxylic acid-N-(2-aminoethyl)-N-n-butyl-amide] gave an inhibition at 10 µM against rh beta tryptase of 70%. For the compound “2-[2-(4-amidinophenyl)ethyl]-1-(2-phenylethyl)-benzimidazol-5-yl-carboxylic acid-N-[4-(amino-methyl)-benzyl]-N-(2-pyridyl)-amide [Example 123]”, on rh beta tryptase, the “% Inhibition (10 μM)” value was 60%. For the compound `CCCCN(CCCC)CCCn1c(CCc2ccc(C(=N)N)cc2)nc2cc(C(=O)N(CCN)CCCc3ccccc3)ccc21` [Example 359, 2-[2-(4-amidinophenyl)ethyl]-1-(3-di-n-butylaminopropyl)-benzimidazol-5-yl-carboxylic acid-N-(2-aminoethyl)-N-(3-phenylpropyl)-amide], on rh beta tryptase, at 10 µM the inhibition was 59%. In turn, `Cn1c(CCc2ccc(C(=N)N)cc2)nc2cc(C(=O)N(CCN)C3CCCCC3)ccc21` [Example 37, 2-[2-(4-Amidinophenyl)-ethyl]-1-methyl-benzimidazol-5-yl-carboxylic Acid-[N-(2-amino-ethyl)-N-cyclohexyl-amide]-dihydrochloride] showed a pIC50 against rh beta tryptase of 7.17. Consider `Cn1c(CCc2ccc(CN)cc2)nc2cc(C(=O)N(CCC(c3ccccc3)c3ccccc3)Cc3ccc(CN)cc3)ccc21` [Example 43, 2-[2-(4-Aminomethyl-phenyl)-ethyl]-1-methyl-benzimidazol-5-yl-carboxylic Acid-N-(4-aminomethylbenzyl)-N-(3,3-diphenylpropyl)-amide-dihydrochloride], for which, on rh beta tryptase, the pIC50 was 6.50. Compared with the last compound, the pIC50 is 0.67 log units lower.

As to `CCOCCCn1c(CCc2ccc(C(=N)N)cc2)nc2cc(C(=O)N(Cc3ccc(CN)cc3)Cc3cccc(C(F)(F)F)c3)ccc21` [Example 198, 2-[2-(4-amidinophenyl)ethyl]-1-(3-ethoxypropyl)-benzimidazol-5-yl-carboxylic acid-N-[4-(amino-methyl)-benzyl]-N-(3-trifluoromethylbenzyl)-amide], at rh beta tryptase, the pIC50 was 6.34 and 10 µM produced 63% inhibition. As for `Cc1ccccc1N1CCN(CCCn2c(CCc3ccc(C(=N)N)cc3)nc3cc(C(=O)N(CCN)CC4CCCCC4)ccc32)CC1` [Example 352, 2-[2-(4-amidinophenyl)ethyl]-1-{3-[4-(2-methylphenyl)-piperazin-1-yl]-propyl}-benzimidazol-5-yl-carboxylic acid-N-(2-aminoethyl)-N-cyclohexylmethyl-amide], at rh beta tryptase, the inhibition at 10 µM was found to be 51%. As for “2-[2-(4-amidinophenyl)ethyl]-1-(2-thiophenyl-methyl)-benzimidazol-5-yl-carboxylic acid-N-(2-aminoethyl)-N-(2-pyridyl)-amide [Example 323]”, the “% Inhibition (10 μM)” value at rh beta tryptase is recorded as 59%. In the case of `N=C(N)c1ccc(CCc2nc3cc(C(=O)N(CCN)Cc4cccc(C(F)(F)F)c4)ccc3n2CC2CC2)cc1` [Example 394, 2-[2-(4-amidinophenyl)ethyl]-1-cyclopropylmethyl-benzimidazol-5-yl-carboxyiic acid-N-(2-aminoethyl)-N-(3-trifluoromethylbenzyl)-amide], the “% Inhibition (10 μM)” value at rh beta tryptase is reported as 52%.

`COc1cccc(CN(Cc2ccc(CN)cc2)C(=O)c2ccc3c(c2)nc(CCc2ccc(C(=N)N)cc2)n3CCc2ccccc2)c1` [Example 75, 2-[2-(4-amidinophenyl)ethyl]-1-(2-phenyl-ethyl)-benzimidazol-5-yl-carboxylic acid-N-[4-(amino-methyl)-benzyl]-N-(3-methoxybenzyl)-amide] gave an inhibition at 10 µM on rh beta tryptase of 60%. As for “2-[2-(4-amidinophenyl)ethyl]-1-[2-(4-chlorophenyl)ethyl]-benzimidazol-5-yl-carboxylic acid-N-[4-(amino-methyl)-benzyl]-N-(2-pyridyl)-amide [Example 124]”, the “% Inhibition (10 μM)” value on rh beta tryptase is recorded as 55%. In the case of `N=C(N)c1ccc(CCc2nc3cc(C(=O)N(Cc4ccc(Cl)cc4)Cc4ccc(CN)cc4)ccc3n2CC2CCCO2)cc1` (stereo not drawn) [Example 194, 2-[2-(4-amidinophenyl)ethyl]-1-(tetrahydrofuran-2-yl-methyl)-benzimidazol-5-yl-carboxylic acid-N-[4-(amino-methyl)-benzyl]-N-(4-chlorbenzyl)-amide], on rh beta tryptase, the “% Inhibition (10 μM)” value is 61%. For the compound `N=C(N)c1ccc(CCc2nc3cc(C(=O)N(Cc4ccc(CN)cc4)CC4CCCCC4)ccc3n2CCCN2CCOCC2)cc1` [Example 161, 2-[2-(4-amidinophenyl)ethyl]-1-[3-(morpholin-4-yl)-propyl]-benzimidazol-5-yl-carboxylic acid-N-[4-(amino-methyl)-benzyl]-N-cyclohexylmethyl-amide], the inhibition at 10 µM against rh beta tryptase was 56%. Take `COc1cccc(CN(Cc2ccc(CN)cc2)C(=O)c2ccc3c(c2)nc(CCc2ccc(C(=N)N)cc2)n3CCCN2CCOCC2)c1` [Example 81, 2-[2-(4-amidinophenyl)ethyl]-1-[3-(morpholin-4-yl)-propyl]-benzimidazol-5-yl-carboxylic acid-N-[4-(amino-methyl)-benzyl]-N-(3-methoxybenzyl)-amide]: at 10 µM the inhibition on rh beta tryptase was 69%. `N=C(N)c1ccc(CCc2nc3cc(C(=O)N(CCN)CCCc4ccccc4)ccc3n2CC2CC2)cc1` [Example 362, 2-[2-(4-amidinophenyl)ethyl]-1-cyclopropylmethyl-benzimidazol-5-yl-carboxylic acid-N-(2-aminoethyl)-N-(3-phenylpropyl)-amide] yielded an inhibition at 10 µM against rh beta tryptase of 74%. For `N=C(N)c1ccc(CCc2nc3cc(C(=O)N(Cc4ccc(Cl)cc4)Cc4ccc(CN)cc4)ccc3n2CCCNC(=O)Cc2ccccc2)cc1` [Example 184, 2-[2-(4-amidinophenyl)ethyl]-1-[3-(benzylcarbonylamino)-propyl]-benzimidazol-5-yl-carboxylic acid-N-[4-(amino-methyl)-benzyl]-N-(4-chlorbenzyl)-amide], the “% Inhibition (10 μM)” value at rh beta tryptase was found to be 72%. Compound `CCCCN(CCN)C(=O)c1ccc2c(c1)nc(CCc1ccc(C(=N)N)cc1)n2CCCN1CCN(c2ccccc2C)CC1` [Example 288, 2-[2-(4-amidinophenyl)ethyl]-1-{3-[4-(2-methylphenyl)-piperazin-1-yl]-propyl}-benzimidazol-5-yl-carboxylic acid-N-(2-aminoethyl)-N-n-butyl-amide] registered an inhibition at 10 µM at rh beta tryptase of 65%.

As a reminder, the melting point is the temperature, or range, at which the solid turns liquid. Broadly, the inhibition is the change of the read-out against control, counted positive when it falls. One may read the pIC50 as the negative decadic logarithm of the IC50, by convention in mol/L. High values mean a small IC50, low ones a large IC50.
